“And” between values parts separate entries of the source, which are not always exact repeats. Equal values may be shown once. Toxic doses and inconclusive results are not listed.
Test system: CD2F1 mice, L1210 leukemia ip, survival T/C
Test: NCI In Vivo Anticancer Drug Screen. Data for tumor model L1210 Leukemia (intraperitoneal) in CD2F1 (CDF1) mice
Conditions: higher = longer survival
In short: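 Compound-dosed mice with transplantable tumor versus matched vehicle controls; endpoint ratio T/C reported.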

[1] = endpoint: mean survival time, dose: 50.0 mg/kg/injection, schedule: Q01DX009 (ip), vehicle: saline with Tween-80
[2] = endpoint: mean survival time, dose: 100.0 mg/kg/injection, schedule: Q01DX009 (ip), vehicle: saline with Tween-80
[3] = endpoint: mean survival time, dose: 200.0 mg/kg/injection, schedule: Q01DX009 (ip), vehicle: saline with Tween-80
[4] = endpoint: mean survival time, dose: 100.0 mg/kg/injection, schedule: Q04DX002 (ip), vehicle: saline with Tween-80
[5] = endpoint: mean survival time, dose: 100.0 mg/kg/injection, schedule: Q01DX001 (ip), vehicle: saline with Tween-80
[6] = endpoint: mean survival time, dose: 400.0 mg/kg/injection, schedule: Q01DX009 (ip), vehicle: saline with Tween-80
[7] = endpoint: mean survival time, dose: 25.0 mg/kg/injection, schedule: Q01DX009 (ip), vehicle: saline with Tween-80
[8] = endpoint: mean survival time, dose: 100.0 mg/kg/injection, schedule: Q04DX003 (ip), vehicle: saline with Tween-80
[9] = endpoint: mean survival time, dose: 200.0 mg/kg/injection, schedule: Q04DX003 (ip), vehicle: saline with Tween-80
[10] = endpoint: mean survival time, dose: 200.0 mg/kg/injection, schedule: Q04DX002 (ip), vehicle: saline with Tween-80
[11] = endpoint: mean survival time, dose: 400.0 mg/kg/injection, schedule: Q04DX002 (ip), vehicle: saline with Tween-80

SMILES: O=C(N/N=C\c1c(Cl)cccc1Cl)c1ccccc1
- T/C (endpoint: mean survival time, dose: 100.0 mg/kg/injection, schedule: Q01DX009 (ip), vehicle: Klucel (hydroxypropylcellulose) (HPC)): 94 % of control
- T/C (endpoint: mean survival time, dose: 100.0 mg/kg/injection, schedule: Q04DX003 (ip), vehicle: Klucel (hydroxypropylcellulose) (HPC)): 100 % of control
- T/C (endpoint: mean survival time, dose: 200.0 mg/kg/injection, schedule: Q01DX009 (ip), vehicle: Klucel (hydroxypropylcellulose) (HPC)): 96 % of control
- T/C (endpoint: mean survival time, dose: 200.0 mg/kg/injection, schedule: Q04DX003 (ip), vehicle: Klucel (hydroxypropylcellulose) (HPC)): 100 % of control
- T/C (endpoint: mean survival time, dose: 400.0 mg/kg/injection, schedule: Q04DX003 (ip), vehicle: Klucel (hydroxypropylcellulose) (HPC)): 96 % of control

SMILES: O=C(Nc1c(Cl)cccc1Cl)OCCOc1ccc(Cl)cc1
- T/C [1]: 94 % of control
- T/C [2]: 105 % of control
- T/C [3]: 105 % of control

SMILES: [Cl][Hg][CH2]CN1CCCCC1
- T/C (endpoint: mean survival time, dose: 25.0 mg/kg/injection, schedule: Q04DX002 (ip), vehicle: saline with Tween-80): 94 % of control
- T/C (endpoint: mean survival time, dose: 50.0 mg/kg/injection, schedule: Q04DX002 (ip), vehicle: saline with Tween-80): 94 % of control
- T/C [4]: 94 % of control

SMILES: NNc1c(F)c(F)c2c(F)c(F)c(F)c(F)c2c1F
- T/C (endpoint: mean survival time, dose: 25.0 mg/kg/injection, schedule: Q01DX001 (ip), vehicle: saline with Tween-80): 97 % of control
- T/C (endpoint: mean survival time, dose: 50.0 mg/kg/injection, schedule: Q01DX001 (ip), vehicle: saline with Tween-80): 96 % of control
- T/C [5]: 88 % of control

SMILES: CC1(C)N=C(N)N=C(N)N1c1ccc(CCCCc2cccc(S(=O)(=O)F)c2)c(Cl)c1
- T/C (endpoint: mean survival time, dose: 2.5 mg/kg/injection, schedule: Q01DX009 (ip), vehicle: saline with Tween-80): 98 % of control
- T/C (endpoint: mean survival time, dose: 5.0 mg/kg/injection, schedule: Q01DX009 (ip), vehicle: saline with Tween-80): 104 % of control
- T/C (endpoint: mean survival time, dose: 6.25 mg/kg/injection, schedule: Q04DX003 (ip), vehicle: saline sonified): 89 % of control
- T/C (endpoint: mean survival time, dose: 10.0 mg/kg/injection, schedule: Q01DX009 (ip), vehicle: saline with Tween-80): 103 % of control
- T/C (endpoint: mean survival time, dose: 12.5 mg/kg/injection, schedule: Q04DX003 (ip), vehicle: saline sonified): 93 % of control
- T/C (endpoint: mean survival time, dose: 20.0 mg/kg/injection, schedule: Q01DX009 (ip), vehicle: saline with Tween-80): 112 % of control
- T/C (endpoint: mean survival time, dose: 25.0 mg/kg/injection, schedule: Q04DX003 (ip), vehicle: saline sonified): 96 % of control

SMILES: OC(COc1ccccc1)COc1ccccc1
- T/C [2]: 98 % of control
- T/C [3]: 93 % of control
- T/C [6]: 89 % of control

SMILES: [Cl][Sn]([c]1ccccc1)[c]1ccccc1
- T/C (endpoint: mean survival time, dose: 6.25 mg/kg/injection, schedule: Q01DX009 (ip), vehicle: saline): 97 % of control
- T/C (endpoint: mean survival time, dose: 12.5 mg/kg/injection, schedule: Q01DX009 (ip), vehicle: saline with Tween-80): 96 % of control
- T/C [7]: 106 % of control
- T/C (endpoint: mean survival time, dose: 25.0 mg/kg/injection, schedule: Q01DX009 (ip), vehicle: saline): 106 % of control
- T/C (endpoint: mean survival time, dose: 50.0 mg/kg/injection, schedule: Q01DX009 (ip), vehicle: saline): 94 % of control

SMILES: CCCCCCCCCCCCOCC[N+](CCO)(CCO)Cc1ccccc1
- T/C (endpoint: mean survival time, dose: 0.25 mg/kg/injection, schedule: Q01DX009 (ip), vehicle: saline): 91 % of control
- T/C (endpoint: mean survival time, dose: 0.5 mg/kg/injection, schedule: Q01DX009 (ip), vehicle: saline): 107 % of control
- T/C (endpoint: mean survival time, dose: 1.0 mg/kg/injection, schedule: Q01DX009 (ip), vehicle: saline): 90 % of control
- T/C (endpoint: mean survival time, dose: 5.0 mg/kg/injection, schedule: Q04DX003 (ip), vehicle: saline): 102 % of control
- T/C (endpoint: mean survival time, dose: 10.0 mg/kg/injection, schedule: Q04DX003 (ip), vehicle: saline): 101 % of control
- T/C (endpoint: mean survival time, dose: 20.0 mg/kg/injection, schedule: Q04DX003 (ip), vehicle: saline): 93 % of control

SMILES: COC(=O)c1ccccc1N=NNc1cccc(SC)c1
- T/C [1]: 95 % of control
- T/C [2]: 103 % of control
- T/C [3]: 97 % of control

SMILES: Clc1ccc(N=Cc2ccc3c(c2)OCO3)c(Cl)c1
- T/C (endpoint: mean survival time, dose: 100.0 mg/kg/injection, schedule: Q01DX001 (ip), vehicle: Klucel (hydroxypropylcellulose) (HPC)): 100 % of control
- T/C (endpoint: mean survival time, dose: 200.0 mg/kg/injection, schedule: Q01DX001 (ip), vehicle: Klucel (hydroxypropylcellulose) (HPC)): 96 % of control
- T/C (endpoint: mean survival time, dose: 400.0 mg/kg/injection, schedule: Q01DX001 (ip), vehicle: Klucel (hydroxypropylcellulose) (HPC)): 97 % of control

SMILES: CCCCC(O)CCCCCCCCCC(=O)O (centres undefined)
- T/C [8]: 97 % of control
- T/C [9]: 101 % of control

SMILES: COC(=O)CNc1ccn(C2OC(CO)C(O)C2O)c(=O)n1 (centres undefined)
- T/C (endpoint: mean survival time, dose: 12.5 mg/kg/injection, schedule: Q01DX005 (ip), vehicle: distilled water + Tween-80): 96 % of control
- T/C (endpoint: mean survival time, dose: 25.0 mg/kg/injection, schedule: Q01DX005 (ip), vehicle: distilled water + Tween-80): 100 % of control
- T/C (endpoint: mean survival time, dose: 50.0 mg/kg/injection, schedule: Q01DX005 (ip), vehicle: distilled water + Tween-80): 100 % of control
- T/C (endpoint: mean survival time, dose: 100.0 mg/kg/injection, schedule: Q01DX005 (ip), vehicle: distilled water + Tween-80): 97 % of control
- T/C (endpoint: mean survival time, dose: 200.0 mg/kg/injection, schedule: Q01DX005 (ip), vehicle: distilled water + Tween-80): 103 % of control

SMILES: CC(C)(C)NCC(CN(CC(CNC(C)(C)C)C(=O)c1ccccc1)C(C)(C)C)C(=O)c1ccccc1 (centres undefined)
- T/C (endpoint: mean survival time, dose: 12.5 mg/kg/injection, schedule: Q04DX003 (ip), vehicle: Klucel (hydroxypropylcellulose) (HPC)): 98 % of control
- T/C (endpoint: mean survival time, dose: 25.0 mg/kg/injection, schedule: Q04DX003 (ip), vehicle: Klucel (hydroxypropylcellulose) (HPC)): 96 % of control
- T/C (endpoint: mean survival time, dose: 50.0 mg/kg/injection, schedule: Q04DX003 (ip), vehicle: Klucel (hydroxypropylcellulose) (HPC)): 102 % of control

SMILES: CCCCn1c(=O)cc(C(=O)O)c2ccccc21
- T/C [2]: 93 % of control
- T/C [3]: 97 % of control
- T/C [6]: 89 % of control

SMILES: O=C(O)/C(O)=C(/O)C(=O)O.[NH-]C1CCCCC1[NH-].[Pt+2]
- T/C (endpoint: median survival time, dose: 3.12 mg/kg/injection, schedule: Q04DX003 (ip), vehicle: saline): 97 % of control
- T/C (endpoint: median survival time, dose: 25.0 mg/kg/injection, schedule: Q04DX003 (ip), vehicle: saline): 113 % of control and 202 % of control
- T/C (endpoint: median survival time, dose: 50.0 mg/kg/injection, schedule: Q04DX003 (ip), vehicle: saline): 337 % of control
- T/C (endpoint: median survival time, dose: 200.0 mg/kg/injection, schedule: Q04DX003 (ip), vehicle: saline): 184 % of control

SMILES: Cc1cn(C2CC3OP(O)(=S)OCC3O2)c(=O)[nH]c1=O (centres undefined)
- T/C (endpoint: mean survival time, dose: 8.7 mg/kg/injection, schedule: Q01DX005 (ip), vehicle: water): 101 % of control
- T/C (endpoint: mean survival time, dose: 17.5 mg/kg/injection, schedule: Q01DX005 (ip), vehicle: water): 102 % of control
- T/C (endpoint: mean survival time, dose: 35.0 mg/kg/injection, schedule: Q01DX005 (ip), vehicle: water): 101 % of control
- T/C (endpoint: mean survival time, dose: 70.0 mg/kg/injection, schedule: Q01DX005 (ip), vehicle: water): 104 % of control

SMILES: COC(=O)c1cccn1C(=O)c1ccccc1N
- T/C [4]: 96 % of control
- T/C [10]: 93 % of control
- T/C [11]: 100 % of control

SMILES: O=S1CCCCO1 (centres undefined)
- T/C (endpoint: mean survival time, dose: 75.0 mg/kg/injection, schedule: Q04DX003 (ip), vehicle: saline): 95 % of control
- T/C (endpoint: mean survival time, dose: 150.0 mg/kg/injection, schedule: Q04DX003 (ip), vehicle: saline): 101 % of control

SMILES: O=C1CC(=O)NC(=O)N1
- T/C [2]: 102 % of control
- T/C [3]: 97 % of control
- T/C [6]: 96 % of control

SMILES: O=C(c1ccccc1[N+](=O)[O-])C(Br)C(Br)c1ccc(Cl)c(Cl)c1 (centres undefined)
- T/C [7]: 87 % of control and 94 % of control
- T/C [1]: 100 % of control
- T/C (endpoint: mean survival time, dose: 50.0 mg/kg/injection, schedule: Q04DX003 (ip), vehicle: saline with Tween-80): 90 % of control
- T/C [5]: 107 % of control
- T/C [4]: 89 % of control and 100 % of control
- T/C [8]: 87 % of control
- T/C (endpoint: mean survival time, dose: 200.0 mg/kg/injection, schedule: Q01DX001 (ip), vehicle: saline with Tween-80): 95 % of control
- T/C [10]: 86 % of control and 96 % of control
- T/C [9]: 90 % of control
- T/C [11]: 86 % of control and 90 % of control

SMILES: O=C(O)C(O)CO.O=C(O)C(O)CO.[NH-]C1CCCCC1[NH-].[Pt+2] (centres undefined)
- T/C (endpoint: mean survival time, dose: 2.5 mg/kg/injection, schedule: Q04DX003 (ip), vehicle: other): 124 % of control

SMILES: CC(C)(C)C1OCCCO1
- T/C (endpoint: mean survival time, dose: 100.0 mg/kg/injection, schedule: Q04DX002 (ip), vehicle: saline): 104 % of control
- T/C (endpoint: mean survival time, dose: 200.0 mg/kg/injection, schedule: Q04DX002 (ip), vehicle: saline): 110 % of control
- T/C (endpoint: mean survival time, dose: 400.0 mg/kg/injection, schedule: Q04DX002 (ip), vehicle: saline): 104 % of control

Reference: PubChem BioAssay AID256 (DTP/NCI, 2004)
